These results are taken from paper PMC7979524 (Pharmacological research, 2021).

In one experiment the target is adenosine A2A receptor (Homo sapiens, UniProt P29274). Format: cell-based.
Another experiment concerns the target T1, adenosine A2B receptor (Homo sapiens, UniProt P29275).
T1 sequence (P29275 1-332): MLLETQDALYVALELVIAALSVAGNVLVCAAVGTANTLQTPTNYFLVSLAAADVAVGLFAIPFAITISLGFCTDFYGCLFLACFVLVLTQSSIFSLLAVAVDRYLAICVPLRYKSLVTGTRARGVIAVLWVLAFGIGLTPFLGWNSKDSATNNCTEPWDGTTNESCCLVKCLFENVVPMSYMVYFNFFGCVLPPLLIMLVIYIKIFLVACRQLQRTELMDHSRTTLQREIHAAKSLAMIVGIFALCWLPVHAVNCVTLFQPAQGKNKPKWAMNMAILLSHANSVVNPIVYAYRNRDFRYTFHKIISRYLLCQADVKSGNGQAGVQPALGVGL
Format: cell-based.

Sequence of adenosine A2A receptor (P29274 whole entry): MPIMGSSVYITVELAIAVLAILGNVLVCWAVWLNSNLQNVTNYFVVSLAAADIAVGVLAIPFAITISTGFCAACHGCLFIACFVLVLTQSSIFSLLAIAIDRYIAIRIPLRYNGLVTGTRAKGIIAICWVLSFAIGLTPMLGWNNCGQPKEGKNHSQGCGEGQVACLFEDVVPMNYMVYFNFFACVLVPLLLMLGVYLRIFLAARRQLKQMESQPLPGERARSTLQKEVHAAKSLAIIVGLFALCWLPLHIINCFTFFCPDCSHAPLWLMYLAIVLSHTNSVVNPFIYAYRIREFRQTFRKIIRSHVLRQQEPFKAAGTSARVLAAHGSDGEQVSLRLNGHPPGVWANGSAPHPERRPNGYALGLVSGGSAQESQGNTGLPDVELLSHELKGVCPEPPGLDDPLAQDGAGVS

Take `COc1cc(/C=C\C(=O)CC(=O)/C=C/c2ccc(O)c(OC)c2)ccc1O` [CTCUR, cis-trans curcumin]: the values for the Ki on adenosine A2A receptor and on adenosine A2B receptor were 5.1 µM and 6.7 µM, respectively.

As usually defined, the Ki is the equilibrium dissociation constant of an inhibitor or competing ligand from its target.
